Measured values taken from ChEMBL document CHEMBL4513139, “CO-ADD screening of University of Strathclyde (UK) compounds”.
≈ marks a conversion by molar mass, not a printed value.

tested on: HEK293; assay: cells; type: functional, Homo sapiens, ATCC CRL1573; settings: Homo sapiens, ATCC CRL1573, HEK293; ASSAY_TEST Inhibition of Cell Viability; detection method Resazurin; Fluorescence (ex560/em590); MEDIA DMEM with 10% FBS; plate type 384well; TC; CORNING #3712; time 18 hr; read-out: CC50

Compound	CC50 [µg/mL]
CC(C)CCc1sc(NC(=O)c2cc(NC(=O)c3cc(NC(=N)c4ccccc4)cn3C)cn2C)nc1C(=O)NCCCN(C)C.O=C(O)C(F)(F)F.O=C(O)C(F)(F)F	> 32
COCCOC1CCN(CCNC(=O)c2cc(NC(=O)c3cc(NC(=O)c4ccc(/C=C/c5cnc6ccccc6c5)cc4)cn3C)cn2C)CC1	1.96 (≈ 2.78 µM)
COc1ccc(/C=C/c2ccc(C(=O)Nc3cc(C(=O)Nc4cc(C(=O)NCCN5CCCCC5)n(CCCc5ccccc5)c4)n(C)c3)cn2)cc1.O=C(O)C(F)(F)F.O=C(O)C(F)(F)F	> 32
Cn1cc(NC(=O)c2cc(NC(=O)c3ccc(/C=C/c4ccc5ccccc5n4)cc3)cn2C)cc1C(=O)NCCN1CCOCC1.O=C(O)C(F)(F)F	1.95
CC(C)CCc1sc(NC(=O)c2cc(NC(=O)c3cc4ccccc4cn3)cn2C)nc1C(=O)NCCCN(C)C.O=C(O)C(F)(F)F	2.17

tested on: Cryptococcus neoformans; assay: not given; settings: not given

Compound	MIC [µg/mL]
COCCOC1CCN(CCNC(=O)c2cc(NC(=O)c3cc(NC(=O)c4ccc(/C=C/c5cnc6ccccc6c5)cc4)cn3C)cn2C)CC1	> 32
COc1ccc(/C=C/c2ccc(C(=O)Nc3cc(C(=O)Nc4cc(C(=O)NCCN5CCCCC5)n(CCCc5ccccc5)c4)n(C)c3)cn2)cc1.O=C(O)C(F)(F)F.O=C(O)C(F)(F)F	16
CC(C)CCc1sc(NC(=O)c2cc(NC(=O)c3cc4ccccc4cn3)cn2C)nc1C(=O)NCCCN(C)C.O=C(O)C(F)(F)F	> 32

The next compounds have a lower MIC than those just listed; values first:

MIC [µg/mL]	Compound
4	CC(C)CCc1sc(NC(=O)c2cc(NC(=O)c3cc(NC(=N)c4ccccc4)cn3C)cn2C)nc1C(=O)NCCCN(C)C.O=C(O)C(F)(F)F.O=C(O)C(F)(F)F
4	Cn1cc(NC(=O)c2cc(NC(=O)c3ccc(/C=C/c4ccc5ccccc5n4)cc3)cn2C)cc1C(=O)NCCN1CCOCC1.O=C(O)C(F)(F)F

tested on: Staphylococcus aureus; assay: microbe, parasite or virus in culture; settings: ATCC 43300, 18 h, ASSAY_TEST Inhibition of Bacterial Growth, detection method Absorption (OD600), MEDIA CAMHB, plate type 384well, NBS, CORNING #3640
Description: Antibacterial activity against Staphylococcus aureus MRSA ATCC 43300 (CO-ADD:GP_020); MIC in CAMBH media, using NBS plates, by OD(600)

Compound	MIC [µg/mL]
COCCOC1CCN(CCNC(=O)c2cc(NC(=O)c3cc(NC(=O)c4ccc(/C=C/c5cnc6ccccc6c5)cc4)cn3C)cn2C)CC1	0.5 (≈ 0.71 µM)
COc1ccc(/C=C/c2ccc(C(=O)Nc3cc(C(=O)Nc4cc(C(=O)NCCN5CCCCC5)n(CCCc5ccccc5)c4)n(C)c3)cn2)cc1.O=C(O)C(F)(F)F.O=C(O)C(F)(F)F	> 32
CC(C)CCc1sc(NC(=O)c2cc(NC(=O)c3cc4ccccc4cn3)cn2C)nc1C(=O)NCCCN(C)C.O=C(O)C(F)(F)F	> 32

Second part, the compound after the results:

MIC [µg/mL]	Compound
> 32	CC(C)CCc1sc(NC(=O)c2cc(NC(=O)c3cc(NC(=N)c4ccccc4)cn3C)cn2C)nc1C(=O)NCCCN(C)C.O=C(O)C(F)(F)F.O=C(O)C(F)(F)F
4	Cn1cc(NC(=O)c2cc(NC(=O)c3ccc(/C=C/c4ccc5ccccc5n4)cc3)cn2C)cc1C(=O)NCCN1CCOCC1.O=C(O)C(F)(F)F

tested on: Escherichia coli; assay: microbe, parasite or virus in culture; settings: ATCC 25922, 18 h, ASSAY_TEST Inhibition of Bacterial Growth, detection method Absorption (OD600), MEDIA CAMHB, plate type 384well, NBS, CORNING #3640
Description: Antibacterial activity against Escherichia coli ATCC 25922 (CO-ADD:GN_001); MIC in CAMBH media using NBS plates, by OD(600)

Compound	MIC [µg/mL]
COCCOC1CCN(CCNC(=O)c2cc(NC(=O)c3cc(NC(=O)c4ccc(/C=C/c5cnc6ccccc6c5)cc4)cn3C)cn2C)CC1	> 32
COc1ccc(/C=C/c2ccc(C(=O)Nc3cc(C(=O)Nc4cc(C(=O)NCCN5CCCCC5)n(CCCc5ccccc5)c4)n(C)c3)cn2)cc1.O=C(O)C(F)(F)F.O=C(O)C(F)(F)F	> 32
CC(C)CCc1sc(NC(=O)c2cc(NC(=O)c3cc4ccccc4cn3)cn2C)nc1C(=O)NCCCN(C)C.O=C(O)C(F)(F)F	> 32

Second part, the compound after the results:

MIC [µg/mL]	Compound
> 32	CC(C)CCc1sc(NC(=O)c2cc(NC(=O)c3cc(NC(=N)c4ccccc4)cn3C)cn2C)nc1C(=O)NCCCN(C)C.O=C(O)C(F)(F)F.O=C(O)C(F)(F)F
> 32	Cn1cc(NC(=O)c2cc(NC(=O)c3ccc(/C=C/c4ccc5ccccc5n4)cc3)cn2C)cc1C(=O)NCCN1CCOCC1.O=C(O)C(F)(F)F

tested on: Klebsiella pneumoniae; assay: microbe, parasite or virus in culture; settings: ATCC 700603, 18 h, ASSAY_TEST Inhibition of Bacterial Growth, detection method Absorption (OD600), MEDIA CAMHB, plate type 384well, NBS, CORNING #3640
Description: Antibacterial activity against Klebsiella pneumoniae MDR ATCC 70063 (CO-ADD:GN_003); MIC in CAMBH media using NBS plates, by OD(600)

Compound	MIC [µg/mL]
COCCOC1CCN(CCNC(=O)c2cc(NC(=O)c3cc(NC(=O)c4ccc(/C=C/c5cnc6ccccc6c5)cc4)cn3C)cn2C)CC1	> 32
COc1ccc(/C=C/c2ccc(C(=O)Nc3cc(C(=O)Nc4cc(C(=O)NCCN5CCCCC5)n(CCCc5ccccc5)c4)n(C)c3)cn2)cc1.O=C(O)C(F)(F)F.O=C(O)C(F)(F)F	> 32
CC(C)CCc1sc(NC(=O)c2cc(NC(=O)c3cc4ccccc4cn3)cn2C)nc1C(=O)NCCCN(C)C.O=C(O)C(F)(F)F	> 32

Next, values leading:

MIC [µg/mL]	Compound
> 32	CC(C)CCc1sc(NC(=O)c2cc(NC(=O)c3cc(NC(=N)c4ccccc4)cn3C)cn2C)nc1C(=O)NCCCN(C)C.O=C(O)C(F)(F)F.O=C(O)C(F)(F)F
> 32	Cn1cc(NC(=O)c2cc(NC(=O)c3ccc(/C=C/c4ccc5ccccc5n4)cc3)cn2C)cc1C(=O)NCCN1CCOCC1.O=C(O)C(F)(F)F

tested on: Pseudomonas aeruginosa; assay: microbe, parasite or virus in culture; settings: ATCC 27853, 18 h, ASSAY_TEST Inhibition of Bacterial Growth, detection method Absorption (OD600), MEDIA CAMHB, plate type 384well, NBS, CORNING #3640
Description: Antibacterial activity against Pseudomonas aeruginosa ATCC 27853 (CO-ADD:GN_042); MIC in CAMBH media using NBS plates, by OD(600)

Compound	MIC [µg/mL]
COCCOC1CCN(CCNC(=O)c2cc(NC(=O)c3cc(NC(=O)c4ccc(/C=C/c5cnc6ccccc6c5)cc4)cn3C)cn2C)CC1	> 32
COc1ccc(/C=C/c2ccc(C(=O)Nc3cc(C(=O)Nc4cc(C(=O)NCCN5CCCCC5)n(CCCc5ccccc5)c4)n(C)c3)cn2)cc1.O=C(O)C(F)(F)F.O=C(O)C(F)(F)F	> 32
CC(C)CCc1sc(NC(=O)c2cc(NC(=O)c3cc4ccccc4cn3)cn2C)nc1C(=O)NCCCN(C)C.O=C(O)C(F)(F)F	> 32

Next, values leading:

MIC [µg/mL]	Compound
> 32	CC(C)CCc1sc(NC(=O)c2cc(NC(=O)c3cc(NC(=N)c4ccccc4)cn3C)cn2C)nc1C(=O)NCCCN(C)C.O=C(O)C(F)(F)F.O=C(O)C(F)(F)F
> 32	Cn1cc(NC(=O)c2cc(NC(=O)c3ccc(/C=C/c4ccc5ccccc5n4)cc3)cn2C)cc1C(=O)NCCN1CCOCC1.O=C(O)C(F)(F)F

tested on: Acinetobacter baumannii; assay: microbe, parasite or virus in culture; settings: ATCC 19606, 18 h, ASSAY_TEST Inhibition of Bacterial Growth, detection method Absorption (OD600), MEDIA CAMHB, plate type 384well, NBS, CORNING #3640
Description: Antibacterial activity against Acinetobacter baumannii ATCC 19606 (CO-ADD:GN_034); MIC in CAMBH media using NBS plates, by OD600

Compound	MIC [µg/mL]
COCCOC1CCN(CCNC(=O)c2cc(NC(=O)c3cc(NC(=O)c4ccc(/C=C/c5cnc6ccccc6c5)cc4)cn3C)cn2C)CC1	> 32
COc1ccc(/C=C/c2ccc(C(=O)Nc3cc(C(=O)Nc4cc(C(=O)NCCN5CCCCC5)n(CCCc5ccccc5)c4)n(C)c3)cn2)cc1.O=C(O)C(F)(F)F.O=C(O)C(F)(F)F	> 32
CC(C)CCc1sc(NC(=O)c2cc(NC(=O)c3cc4ccccc4cn3)cn2C)nc1C(=O)NCCCN(C)C.O=C(O)C(F)(F)F	> 32

Results, then the compound that gave them:

MIC [µg/mL]	Compound
> 32	CC(C)CCc1sc(NC(=O)c2cc(NC(=O)c3cc(NC(=N)c4ccccc4)cn3C)cn2C)nc1C(=O)NCCCN(C)C.O=C(O)C(F)(F)F.O=C(O)C(F)(F)F
> 32	Cn1cc(NC(=O)c2cc(NC(=O)c3ccc(/C=C/c4ccc5ccccc5n4)cc3)cn2C)cc1C(=O)NCCN1CCOCC1.O=C(O)C(F)(F)F

tested on: Candida albicans; assay: microbe, parasite or virus in culture; settings: ATCC 90028, ASSAY_TEST Inhibition of Fungal Growth, detection method Absorption (OD530), plate type 384well, NBS, CORNING #3640
Description: Antifungal activity against Candida albicans ATCC 90028 (CO-ADD:FG_001); MIC in YNB media using NBS plates, by OD630

Compound	MIC [µg/mL]
COCCOC1CCN(CCNC(=O)c2cc(NC(=O)c3cc(NC(=O)c4ccc(/C=C/c5cnc6ccccc6c5)cc4)cn3C)cn2C)CC1	> 32
COc1ccc(/C=C/c2ccc(C(=O)Nc3cc(C(=O)Nc4cc(C(=O)NCCN5CCCCC5)n(CCCc5ccccc5)c4)n(C)c3)cn2)cc1.O=C(O)C(F)(F)F.O=C(O)C(F)(F)F	> 32
CC(C)CCc1sc(NC(=O)c2cc(NC(=O)c3cc4ccccc4cn3)cn2C)nc1C(=O)NCCCN(C)C.O=C(O)C(F)(F)F	> 32

Now from value to compound:

MIC [µg/mL]	Compound
> 32	CC(C)CCc1sc(NC(=O)c2cc(NC(=O)c3cc(NC(=N)c4ccccc4)cn3C)cn2C)nc1C(=O)NCCCN(C)C.O=C(O)C(F)(F)F.O=C(O)C(F)(F)F
4	Cn1cc(NC(=O)c2cc(NC(=O)c3ccc(/C=C/c4ccc5ccccc5n4)cc3)cn2C)cc1C(=O)NCCN1CCOCC1.O=C(O)C(F)(F)F
